Assay results from a melting point compilation (Tetko et al.; mined from patent text by program, amines drawn as free bases though some values may be those of a salt).

First: OC1CSC(Oc2ccc(-c3ccc(C(F)(F)F)cc3)nc2)C(O)C1O (centres undefined)
Second: O=C(OCc1ccccc1)C1NN=C(c2ccc(C(F)(F)F)cc2)S1 (centres undefined)
The melting point of the first is higher: 194 to 195 °C for the first, 99 to 100 °C for the second.

First: CC1(C2CCC3C4C=CC5=CC(=O)C6OC6C5(C)C4CCC32C)OCCO1 (centres undefined)
Second: O=C1CO[C@@H]2c3ccccc3OCC[C@H]2N1 (relative stereo)
The melting point of the first is lower: 137 to 138 °C for the first, 246 to 248 °C for the second.

Compared with `COc1cc(NCCN(C)Cc2ccccc2)ccc1C(N)=O`, `COC(=O)c1ccc(OCc2ccc(Cl)cc2)cc1OCc1ccccc1` is lower in melting point: 153 to 155 °C for the first, 99 to 101 °C for the second.

First: CCCn1c(COCc2ccc(OC)cc2)nc(C(C)C)c1Sc1cc(Cl)cc(Cl)c1
Second: COc1ccc2cc([C@H](C)C(=O)OCC[Si](C)(C)C)ccc2c1
The melting point of the first is higher: 104 to 107 °C for the first, 81.5 to 82.5 °C for the second.

Going from `CC(=O)OC1CSC(Oc2ccc(-c3ccnc(Cl)c3)nc2)C(OC(C)=O)C1OC(C)=O` (centres undefined) to `CO[C@@H]1[C@@H](OC)[C@H](C)O[C@@H](ONC(=O)c2ccc(-c3cn(-c4ccc(OC(F)(F)F)cc4)cn3)cc2)[C@@H]1OC`, the melting point falls from 226 °C to 185 °C.

First: CCOC(=O)c1cn(C2CC2)c2c(C)c(N3CCN(C(=O)OCC)CC3)c(F)cc2c1=O
Second: CCNCC1CCN(c2c(F)cc3c(=O)c(C(=O)O)cn(C4CC4)c3c2C(F)(F)F)C1 (centres undefined)
The melting point of the first is lower: 200 to 202 °C for the first, 239 to 241 °C for the second.

First: C#CCN(Cc1ccc2nc(Cl)c(N)cc2c1)c1ccc(C(=O)N[C@@H](CCC(=O)O)C(=O)O)c(F)c1
Second: O=C(O)CCc1ccc2c(c1)OC[C@@H](Cc1ccccc1)[C@@H]2O (relative stereo)
The melting point of the first is lower: 107 to 110 °C for the first, 161 to 162 °C for the second.

First: CCOC(=O)c1cc2c3n(ccc-2n1)CC(c1ccccc1)=N3
Second: CC(C)n1nc(-c2cc(C(N)=O)c(Cl)nc2-c2ccccc2)ccc1=O
The melting point of the first is higher: 255 to 257 °C for the first, 199 to 200 °C for the second.

First: Cc1cc(CCC(=O)c2ccc(-c3ccc(C(F)(F)F)cc3)s2)cc(C)c1OC(C)(C)C(=O)O
Second: CC(C)(C)c1ccc(CN=C2SCN(c3ccccc3)C(=O)N2CC(F)(F)F)cc1
The melting point of the first is higher: 157 to 158 °C for the first, 90 to 91.5 °C for the second.

Compared with `CC(=O)OCCn1ccc(=O)c(OCc2ccccc2)c1C(OC(C)=O)c1ccccc1F` (centres undefined), `Cc1cccc(COc2cccc(OCc3ccc4ccccc4n3)c2)c1C(=O)O` is lower in melting point: 173 to 174 °C for the first, 167 to 168 °C for the second.

First: CNC(=O)c1cc(NC(=O)c2ccc(C)c(Nc3nccc(N4C=CC=NC4)n3)c2)cc(N2CCOCC2)c1
Second: Cc1cccc(C)c1N1C(=O)CS/C1=N\C(=O)Nc1ccc(-c2ncn(-c3ccc(OC(F)(F)F)cc3)n2)cc1
The melting point of the first is lower: 153 to 156 °C for the first, 190 to 196 °C for the second.

First: C=CCc1cc(C(C)=O)c(O)cc1OCCCCC
Second: CCOCCc1ccc(OCCNc2ncnc(C)c2Cl)c(C)c1
The melting point of the first is lower: 54 °C for the first, 57 to 58 °C for the second.

Going from `CC(C)Oc1ncnc2c(O)ccc(Cl)c12` to `CC(C)CC(=O)Oc1n[nH]c(=O)c2nc3cc(Cl)ccc3c(O)c12`, the melting point rises from 126 °C to over 400 °C.

First: CS(=O)(=O)C(=C1CN(C(c2ccccc2)c2ccccc2)C1)c1cccc(C(N)=O)c1
Second: NC(=S)NCC(c1ccccc1)c1ccccc1
The melting point of the first is lower: 140 °C for the first, 205 to 207 °C for the second.

First: CCC(COC)Nc1nc(C)nc(N2CCc3cc(OC)cc(Cl)c32)c1I (centres undefined)
Second: COC(=O)c1cc(-c2ccccc2)c(=O)n2c1-c1cc(Cl)ccc1CC2
The melting point of the first is higher: 150 to 152 °C for the first, 139 to 141 °C for the second.

First: Cc1nc(-c2ccc(Cl)cc2)sc1C(N)=O
Second: O=C(O)c1nnc(-c2ccc(Cl)cc2)o1
The melting point of the first is lower: 236 to 237 °C for the first, 277 to 284 °C for the second.

First: CCOC(=O)COc1cccc2c1CC(Br)C2=O (centres undefined)
Second: NC(=O)c1c(N)cccc1OCCOc1ccccc1
The melting point of the first is lower: 60 to 63 °C for the first, 127 to 130 °C for the second.

Compared with `CCn1cc(C(=O)O)c(=O)c2cc(F)c(N3CCNC(COc4ccccc4)C3)cc21` (centres undefined), `COC(=O)C1(c2ccccc2)CCN(CCNC(=O)N2C(=O)COCC2c2ccc(F)c(F)c2)CC1` (centres undefined) is lower in melting point: 198 to 200 °C for the first, 113 to 117 °C for the second.

First: Cn1c(COc2ccc(CC3SC(=O)NC3=O)cc2)cc2ccccc21 (centres undefined)
Second: CC1(C)SC2C(N3C(=O)c4ccccc4C3=O)C(=O)N2C1C(=O)OCc1ccc([N+](=O)[O-])cc1 (centres undefined)
The melting point of the first is lower: 174 to 176 °C for the first, 233 to 234 °C for the second.

First: O=C(OC(=O)c1ccccc1S(=O)(=O)O)c1ccccc1S(=O)(=O)O
Second: O=C(O)CCCc1ccc(-c2ccccc2)cc1
The melting point of the first is higher: 126 to 129 °C for the first, 118 to 119 °C for the second.

First: COc1ccc(C2NC(C(=O)O)C(C)(C)S2)c(C(=O)O)c1OC (centres undefined)
Second: CCOC(=O)c1nc2scc(C(=O)O)c2c(=O)[nH]1
The melting point of the first is lower: 90 to 91 °C for the first, 258 °C for the second.

Going from `O=C(Nc1ccc(O)cc1)C(=O)Nc1ccc(O)cc1` to `O=C(c1ccc(O)cc1)c1ccc(Cl)cc1Cl`, the melting point falls from over 250 °C to 140 °C.

Compared with `Cc1ccc(S(=O)(=O)NN=C(Cc2ccc(OCc3ccccc3)cc2)c2cc(OCc3ccccc3)cc(OCc3ccccc3)c2)cc1`, `COc1ccc(C2C(C(=O)/C=C/c3ccc(OCc4ccccc4)c(OC)c3)C(=O)CC(c3ccc(OCc4ccccc4)cc3)C2[N+](=O)[O-])cc1` (centres undefined) is lower in melting point: 147 °C for the first, 76 to 78 °C for the second.

First: OC(CNC1CC1)COc1ccc(-c2nc(C(F)(F)F)c[nH]2)cc1 (centres undefined)
Second: N#Cc1ccc(-c2ncc(Br)cn2)cc1
The melting point of the first is lower: 169 to 171 °C for the first, 222 °C for the second.

First: CCCCN(C=Nc1nnnc2c1ncn2C1CC(O)C(CO)O1)CCCC (centres undefined)
Second: CCCCCCCCCCCCCCCC(=O)NCCCC
The melting point of the first is higher: 107 to 109 °C for the first, 74 to 76 °C for the second.

Compared with `Cc1oc(=O)c(Nc2ccccc2)nc1Cl`, `Clc1cc2c(nn1)-c1ccccc1OC2` is higher in melting point: 133 to 137 °C for the first, 208 °C for the second.

First: O=C1N(Cc2nccnc2C(F)(F)F)c2ccccc2C12COc1cc3c(cc12)OCCO3 (centres undefined)
Second: CC(=O)N(O)CC1=C(n2ccccc2=O)c2cc(C(F)(F)F)ccc2OC1(C)C
The melting point of the first is higher: 230 to 232 °C for the first, 188 °C for the second.

First: Cn1c(=O)[nH]c(=O)c2c1ncn2Cc1noc(C2CCCCC2)n1
Second: CN[C@@H](C)[C@@H]1CCN(c2c(F)cc3c(=O)[nH]c(=O)n(C4CC4)c3c2OC)C1
The melting point of the first is higher: 245 to 248 °C for the first, 162 to 164 °C for the second.

First: O=C(C=Cc1ccc(N2CCCC2)cc1)c1ccc2c(c1)CCC2
Second: C=C(C)COc1ccc(C(=O)C=Cc2ccc(Br)cc2)c(O)c1
The melting point of the first is higher: 162 to 164 °C for the first, 121 to 122 °C for the second.

First: CC1(C)CCc2c(N3CCSCC3)nc3sc4c(NCCCN5CCCC5=O)ncnc4c3c2C1
Second: COc1cc(N2CCN(C(=O)Cn3nc(C#N)c4cccnc43)CC2)ccc1Cl
The melting point of the first is higher: 219 to 221 °C for the first, 183 to 185 °C for the second.

Compared with `O=C(NCCO)NC1CCCc2ccccc21` (centres undefined), `O=C(NCC(C(=O)O)C(F)(F)F)Nc1ccccc1` (centres undefined) is higher in melting point: 146 to 149 °C for the first, 180 to 181 °C for the second.

First: CC(=O)c1ccc2c(c1)C=CC(=CCl)CO2
Second: COC(=O)c1cc(Cl)cc2ccoc12
The melting point of the first is lower: 85 to 90 °C for the first, 144 to 145 °C for the second.

First: COc1cc(C2CCC(c3cc(OC)c(OC)c(OC)c3)O2)cc(OC)c1OC (centres undefined)
Second: CCOC(=O)c1ccc(C#CC(O)c2cc(C(C)(C)C)cc(C(C)(C)C)c2OC)cc1 (centres undefined)
The melting point of the first is higher: 128 to 130 °C for the first, 101 to 103 °C for the second.

First: CN(C)C(=O)Sc1nc(-c2ccccc2)cn1-c1ccc([N+](=O)[O-])cn1
Second: O=C(O)c1cc(Br)cc([N+](=O)[O-])c1NCc1ccccc1Cl
The melting point of the first is higher: 200 to 201 °C for the first, 159 to 161 °C for the second.

First: O=C1CCC(N2C(=O)c3ccc(CNC(=O)NC4CCCCC4)cc3C2=O)C(=O)N1 (centres undefined)
Second: O=C(CC1CCCCC1)Nc1c(Cl)ccc2nc(N3CC[C@@H](O)C3)ccc12
The melting point of the first is lower: 208 to 210 °C for the first, 219 to 221 °C for the second.

First: CC[C@@H](CO)[C@](O)(Cn1cncn1)c1ccc(F)cc1F
Second: CCC(CC)COc1c(-c2ccc(S(C)(=O)=O)cc2)cnn(-c2ccc(F)cc2)c1=O
The melting point of the first is lower: 75 to 77 °C for the first, 107 to 108 °C for the second.

`C=Cc1c(NC(=O)c2cn(C)nc2C(F)(F)F)cccc1C(C)(C)C` and `CC1=C(C(=O)OCCN2CCCCC2)C(c2ccccc2C(F)(F)F)c2c(ccnc2OC(C)C)N1` (centres undefined) cannot be ordered by melting point: 118 to 119 °C for the first, 118 to 120 °C for the second.

First: O=Cc1ccc(CNc2ccccn2)c(Cl)c1
Second: O=C1Cc2c(Cl)cccc2Sc2cc(F)ccc21
The melting point of the first is higher: 122 to 123 °C for the first, 109 to 111 °C for the second.

Compared with `O=C(C=Cc1cccnc1)NCCCOC1CCN(Cc2ccccc2)CC1`, `CCOC(=O)c1ccccc1CCC(=O)Nc1cccc(/C=C/c2nc(C3CCC3)cs2)c1` is higher in melting point: 100 to 102 °C for the first, 110 to 111 °C for the second.

Compared with `Cc1ccc2c(c1)C(=O)c1ccccc1S2(=O)=O`, `O=C1C(=O)c2ccccc2C2=C1SCC1(CCN(CC(O)Cc3ccccc3)CC1)O2` (centres undefined) is lower in melting point: 179 to 198 °C for the first, 82 to 84 °C for the second.

Compared with `O=C1Cn2ccnc2-c2c(Br)cccc2N1`, `Brc1ccc2c(c1)CN(Cc1c[nH]c3ccccc13)C2` is lower in melting point: 234 to 235 °C for the first, 188 to 190 °C for the second.

Compared with `CC(C)NC(=O)c1ccc(CCN2CC=C(c3c[nH]c(-c4ccc(F)cc4)c3-c3ccncc3)CC2)cc1`, `OCCCc1ccc2ccn(C3CCN(CCc4ccc(F)cc4)CC3)c2c1` is lower in melting point: 178 to 180 °C for the first, 131 to 133 °C for the second.

Compared with `CCc1ccc(Br)c(CC)c1-n1cncc1C(=O)O`, `Cc1cncn1Cc1ccc(N)cc1` is lower in melting point: 224 to 227 °C for the first, 124 to 125 °C for the second.

First: CC(C)(C)C(=O)C(Br)Cc1ccc(Cl)cc1 (centres undefined)
Second: CNC(=O)c1nn(-c2ccc(Cl)cc2)c(=O)c2c(N)scc12
The melting point of the first is lower: 48 to 50 °C for the first, 192 to 194 °C for the second.

First: O=C(CS(=O)Cc1ccco1)C12CC3CC(CC(C3)C1)C2 (centres undefined)
Second: CN(C)CCN(Cc1ccccc1)C1=NC(=O)C(=Cc2cccc(-c3cc(F)c(O)c(C45CC6CC(CC(C6)C4)C5)c3)c2)S1
The melting point of the first is lower: 75 to 79 °C for the first, 242 to 246 °C for the second.

Compared with `Cc1cc(C)c(/C=C/C2OCC(C)(C)CO2)c(Br)c1`, `Cc1cc(C)c2c(c1C)OCC2c1ccc(C2OCCO2)cc1` (centres undefined) is higher in melting point: 54 to 56 °C for the first, 107 to 108 °C for the second.

First: COC(=O)[C@@H]1CCN1S(=O)(=O)c1ccc(Cl)c(CBr)c1Cl
Second: O=S(=O)(Cl)c1ccc(Cl)c(CCl)c1Cl
The melting point of the first is higher: 150 °C for the first, 68 °C for the second.

First: CCCCc1nc(C(=O)c2ccccc2)c(C#N)[nH]1
Second: C=COCCN1C(=O)CN(c2ccccc2)C1=O
The melting point of the first is higher: 121 to 122 °C for the first, 119 to 120 °C for the second.

First: COc1cc(NCCO)c([N+](=O)[O-])c(NCCO)c1
Second: O=S1(=O)NC2CCCN2c2ccc(Oc3ccc(Cc4nnn[nH]4)cc3)cc21 (centres undefined)
The melting point of the first is lower: 150 °C for the first, 209 to 212 °C for the second.

Compound `O=C(O)C(CN1CCCC1)C(C(=O)O)P(=O)(O)O` (centres undefined) has a melting point of 122 to 124 °C.
